Source: patent publication US20090325952A1, “PYRAZOLO[3,4-B]PYRIDINE COMPOUNDS, AND THEIR USE AS PDE4 INHIBITORS” (Glaxo Group Limited, priority 2006, published 2009)
Structures can show the parent of a compound that is named as a salt.

Biological target: PDE4D (human recombinant) (Homo sapiens, UniProt Q08499)
Assay: Inhibition of PDE4D activity (FP assay)
Assay type: biochemical
Conditions: FP assay or generally similar assay, ±about 0.5 or more; for IC50: read-out: PDE4D pIC50 (converted)
Excerpt: Human recombinant PDE4D (HSPDE4D3A) is disclosed in P. A. Baecker et al., “Isolation of a cDNA encoding a human rolipram-sensitive cyclic AMP phoshodiesterase (PDE IVD)”, Gene, 1994, 138, 253-256.
The ability of compounds to inhibit catalytic activity at PDE4B (human recombinant) or PDE4D (human recombinant) can optionally be determined by IMAP Fluorescence Polarisation (FP) assay (IMAP Explorer kit, available from Molecular Devices Corporation, Sunnydale, Calif., USA; Molecular Devices code: R8062) in 384-well format.
The IMAP FP assay is able to measure PDE activity in an homogenous, non-radioactive assay format. The FP assay uses the ability of immobilised trivalent metal cations, coated onto nanoparticles (tiny beads), to bind the phosphate group of Fl-AMP that is produced on the hydrolysis of fluorescein-labelled (Fl) cyclic adenosine mono-phosphate (Fl-cAMP) to the non-cyclic Fl-AMP form. […] Binding of Fl-AMP product to the beads (coated with the immobilised trivalent cations) slows the rotation of the bound Fl-AMP and leads to an increase in the fluorescence polarisation ratio of parallel to perpendicular light. Inhibition of the PDE reduces/inhibits this signal increase.
Test compounds (small volume, e.g. ca. 0.5 to 1 microlitres (ul), suitably ca. 0.5 ul, of solution in DMSO) are preincubated at ambient temperature (room temperature, e.g. 19-23° C.) in black 384-well microtitre plates (supplier: NUNC, code 262260) with PDE enzyme in 10 mM Tris-HCl buffer pH 7.2, 10 mM MgCl2, 0.1% (w/v) bovine serum albumin, and 0.05% NaN3 for 10-30 minutes. The enzyme level is set by experimentation so that reaction is linear throughout the incubation. Fluorescein adenosine 3′,5′-cyclic phosphate (from Molecular Devices Corporation, Molecular Devices code: R7091) is added to give about 40 nM final concentration (final assay volume usually ca. 20-40 ul, suitably ca. 20 ul). Plates are mixed on an orbital shaker for 10 seconds and incubated at ambient temperature for 40 minutes. IMAP binding reagent (as described above, from Molecular Devices Corporation, Molecular Devices code: R7207) is added (60 ul of a 1 in 400 dilution in binding buffer of the kit stock solution) to terminate the assay. Plates are allowed to stand at ambient temperature for 1 hour. The Fluorescence Polarisation (FP) ratio of parallel to perpendicular light is measured using an Analyst™ plate reader (from Molecular Devices Corporation). For inhibition curves, 10 concentrations (e.g. 1.5 nM-30 uM) of each compound are assayed. Curves are analysed using ActivityBase and XLfit (ID Business Solutions Limited, 2 Ocean Court, Surrey Research Park, Guildford, Surrey GU2 7QB, United Kingdom). Results are expressed as pIC50 values.
The PDE4D pIC50 values of some compounds or salts of the invention are as follows, as measured using an FP assay or a generally similar assay: • the salt of Example 1A1: PDE4D pIC50=about 10.7 (about 0.5 or more) (n=8). • the compound of Example 1B: PDE4D pIC50=about 10.4 (about 0.5 or more) (n=2). • the salt of Example 9: PDE4D pIC50>about 11.0 (± about 0.5 or more) (n=1). • the salt of Example 19: PDE4D pIC50=about 10.7 (±about 0.5 or more) (n=2). • the salt of Example 26: PDE4D pIC50=about 9.4 (±about 0.5 or more) (n=2). • the compound of Example 23A: PDE4D pIC50=about 10.5 (± about 0.5 or more) (n=1). Emesis: Some known PDE4 inhibitors can cause emesis and/or nausea to greater or lesser extents, especially after systemic exposure e.g. after oral administration (e.g. see Z. Huang et al., Current Opinion in Chemical Biology, 2001, 5: 432-438, see especially pages 433-434 and refs cited therein). Therefore, it would be preferable, but not essential, if a PDE4 inhibitory compound or salt of the invention were to cause only limited or manageable emetic side-effects, e.g. after inhaled or parenteral or external-topical administration. […]

Chain of PDE4D (human recombinant) (Q08499 1-673 isoform Q08499-2): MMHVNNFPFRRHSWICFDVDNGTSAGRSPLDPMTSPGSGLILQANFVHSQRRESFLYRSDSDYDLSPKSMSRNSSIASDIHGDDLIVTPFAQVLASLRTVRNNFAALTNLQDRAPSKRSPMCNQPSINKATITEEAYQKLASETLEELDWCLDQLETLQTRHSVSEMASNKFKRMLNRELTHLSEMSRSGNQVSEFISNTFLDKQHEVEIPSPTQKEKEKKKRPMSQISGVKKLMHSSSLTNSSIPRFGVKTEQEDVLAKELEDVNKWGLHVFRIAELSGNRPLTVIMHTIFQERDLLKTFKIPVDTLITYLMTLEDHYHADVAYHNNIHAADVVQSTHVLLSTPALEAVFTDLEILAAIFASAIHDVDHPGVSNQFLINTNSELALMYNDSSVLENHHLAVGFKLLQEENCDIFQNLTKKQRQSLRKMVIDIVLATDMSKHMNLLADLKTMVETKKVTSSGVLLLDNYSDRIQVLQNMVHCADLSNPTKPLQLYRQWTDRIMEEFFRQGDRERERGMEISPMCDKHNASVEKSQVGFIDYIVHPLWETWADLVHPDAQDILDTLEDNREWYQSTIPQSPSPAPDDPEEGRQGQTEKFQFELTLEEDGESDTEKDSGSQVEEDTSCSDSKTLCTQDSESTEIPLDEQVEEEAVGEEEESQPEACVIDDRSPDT

IC50 [nM]	SMILES	PDE4D pIC50
~0.02	CCc1nc2c(cnn2CC)c(NC2CCOCC2)c1CNC(=O)c1ccc(NC(=O)CCCCCCCN(C)CCO)cc1 [Example 1A1, N-{[1,6-Diethyl-4-(tetrahydro-2H-pyran-4-ylamino)-1H-pyrazolo[3,4-b]pyridin-5-yl]methyl}-4-({8-[(2-hydroxyethyl)(methyl)amino]octanoyl}amino)benzamide dihydrochloride]	
~0.0398	CCc1nc2c(cnn2CC)c(NC2CCOCC2)c1CNC(=O)c1ccc(NC(=O)CCCCCCCN(C)CCO)cc1 [Example 1B, N-{[1,6-diethyl-4-(tetrahydro-2H-pyran-4-ylamino)-1H-pyrazolo[3,4-b]pyridin-5-yl]methyl}-4-({8-[(2-hydroxyethyl)(methyl)amino]octanoyl}amino)benzamide]	
	CCc1nc2c(cnn2CC)c(NC2CCN(C(N)=O)CC2)c1CNC(=O)c1ccc(NC(=O)CCCCCCCN(C)CCO)cc1.O=C(O)C(F)(F)F [Example 9, 4-({1,6-diethyl-5-[({[4-({8-[(2-hydroxyethyl)(methyl)amino]octanoyl}amino)phenyl]carbonyl}amino)methyl]-1H-pyrazolo[3,4-b]pyridin-4-yl}amino)-1-piperidinecarboxamide trifluoroacetate (salt)]	> 11.0
~0.02	CCc1nc2c(cnn2CC)c(NC2CCOCC2)c1CNC(=O)c1ccc(CCCCOCCCCN(C)CCO)cc1 [Example 19, formate salt of N-{[1,6-diethyl-4-(tetrahydro-2H-pyran-4-ylamino)-1H-pyrazolo[3,4-b]pyridin-5-yl]methyl}-4-[4-({4-[(2-hydroxyethyl)(methyl)amino]butyl}oxy)butyl]benzamide]	
~0.0316	CCc1nc2c(cnn2CC)c(NC2CCN(C(N)=O)CC2)c1CNC(=O)c1ccc(CCCCOCCCCN2CCOCC2)cc1 [Example 23A, 4-({1,6-diethyl-5-[({[4-(4-{[4-(4-morpholinyl)butyl]oxy}butyl)phenyl]carbonyl}amino)methyl]-1H-pyrazolo[3,4-b]pyridin-4-yl}amino)-1-piperidinecarboxamide]	
~0.398	CCn1ncc2c(NC3CCOCC3)c(CNC(=O)c3ccc(NC(=O)CCCCCCCN(C)CCO)cc3)cnc21 [Example 26, Formate salt of N-{[1-ethyl-4-(tetrahydro-2H-pyran-4-ylamino)-1H-pyrazolo[3,4-b]pyridin-5-yl]methyl}-4-({8-[(2-hydroxyethyl)(methyl)amino]octanoyl}amino)benzamide]	
